According to patent EP1513525B1, “USE OF MGLUR5 ANTAGONISTS FOR THE TREATMENT OF GERD” (AstraZeneca AB, priority 2002, dated 2003):

How the values were obtained:
[1] = tested on: TLESRs; assay: Screening for compounds active against TLESR, Barostat model (nutrient meal followed by air infusion, intragastric pressure held at 10±1 mmHg); assay type: in vivo, Adult Labrador retrievers; conditions: inhibition of the number of TLESRs, infusion during 55 min
Method: (§1) Adult Labrador retrievers of both genders, trained to stand in a Pavlov sling, are used. Mucosa-to-skin esophagostomies are formed and the dogs are allowed to recover completely before any experiments are done.
(§2) In brief, after fasting for approximately 17 h with free supply of water, a multilumen sleeve/sidehole assembly (Dentsleeve, Adelaide, South Australia) is introduced through the esophagostomy to measure gastric, lower esophageal sphincter (LES) and esophageal pressures. The assembly is perfused with water using a low-compliance manometric perfusion pump (Dentsleeve, Adelaide, South Australia). An air-perfused tube is passed in the oral direction to measure swallows, and an antimony electrode monitored pH, 3 cm above the LES. All signals are amplified and acquired on a personal computer at 10 Hz.
Ten min after i.v. administration, a nutrient meal (10% peptone, 5% D-glucose, 5% Intralipid, pH 3.0) is infused into the stomach through the central lumen of the assembly at 100 ml/min to a final volume of 30 ml/kg. Immediately following the meal, air is insufflated at 40 ml/min. In an alternative model (Barostat model), the infusion of the nutrient meal is followed by air infusion at a rate of 500 ml/min until a intragastric pressure of 10±1 mmHg is obtained. […]

[2] = tested on: TLESRs; assay: Screening for compounds active against TLESR, standard model (nutrient meal followed by air insufflation at 40 ml/min); assay type: in vivo, Adult Labrador retrievers
Method: as §1, §2
When a baseline measurement free from fasting gastric/LES phase III motor activity has been obtained, placebo (0.9% NaCl) or test compound is administered intravenously (i.v., 0.5 ml/kg) in a foreleg vein. Ten min after i.v. administration, a nutrient meal (10% peptone, 5% D-glucose, 5% Intralipid, pH 3.0) is infused into the stomach through the central lumen of the assembly at 100 ml/min to a final volume of 30 ml/kg. Immediately following the meal, air is insufflated at 40 ml/min. In an alternative model (Barostat model), the infusion of the nutrient meal is followed by air infusion at a rate of 500 ml/min until a intragastric pressure of 10±1 mmHg is obtained. The pressure is then maintained at this level throughout the experiment using the infusion pump for further air infusion or for venting air from the stomach. The experimental time from start of nutrient infusion to end of air insufflation is 45 min. The procedure has been validated as a reliable means of triggering TLESRs.
TLESRs is defined as a decrease in lower esophageal sphincter pressure (with reference to intragastric pressure) at a rate of >1 mmHg/s. The relaxation should not be preceded by a pharyngeal signal ≤2s before its onset in which case the relaxation is classified as swallow-induced. The pressure difference between the LES and the stomach should be less than 2 mmHg, and the duration of the complete relaxation longer than 1 s.
2-Methyl-6-(phenylethynyl)-pyridine (MPEP) was prepared according to the procedure described by K. Sonogashira et al. in Tetrahedron Lett. (1975), 50, 4467-4470. After purification by column chromatography (SiO2), the hydrochloride salt (the hydrochloride salt of 2-methyl-6-(phenylethynyl)-pyridine is also commercially available from e.g. Tocris) was prepared by introducing HCl(g) to an ice-cooled Et2O-solution of the product. The hydrochloride salt of MPEP was tested on adult Labrador retrievers of both genders in accordance with the test model described above.
Inhibition of the number of TLESRs was calculated with regard to the five preceding control experiments for each dog, and the results as set out in Tables 1.1 and 1.2 below were achieved. Table 1.1 - Standard model

SMILES | % INHIBITION ± SEM (N) ([1]; dose 1.1 µmol/kg/h, N=4 dogs) | % INHIBITION ± SEM (N) ([1]; dose 2.2 µmol/kg/h, N=2 dogs) | % INHIBITION ± SEM (N) ([2]; inhibition of the number of TLESRs vs five preceding control experiments per dog, dose 1.4 µmol/kg i.v., N=4 dogs) | % INHIBITION ± SEM (N) ([2]; inhibition of the number of TLESRs vs five preceding control experiments per dog, dose 4.3 µmol/kg i.v., N=4 dogs) | % INHIBITION ± SEM (N) ([2]; inhibition of the number of TLESRs vs five preceding control experiments per dog, dose 8.7 µmol/kg i.v., N=3 dogs) | % INHIBITION ± SEM (N) ([2]; inhibition of the number of TLESRs, dose 4 µmol/kg/h, infusion during 60 min, N=4 dogs) | % INHIBITION ± SEM (N) ([2]; inhibition of the number of TLESRs, dose 6 µmol/kg/h, infusion during 60 min, N=2 dogs)
COCc1cc(C#N)cc(-c2nc(-c3ccc(F)cn3)no2)c1 [3-[3-(5-fluoropyridin-2-yl)-1,2,4-oxadiazol-5-yl]-5-(methoxymethyl)benzonitrile] | 58 ± 11 (4) % | 83 ± 17 (2) % |  |  |  |  | 
Cc1cccc(C#Cc2ccccc2)n1 [MPEP, 2-Methyl-6-(phenylethynyl)-pyridine] |  |  | 30 ± 5 (4) % | 57 ± 8 (4) % | 59 ± 11 (3) % | 32 ± 13 (4) % | 43 ± 3 (2) %
